Reference: ChEMBL document CHEMBL1201862, “PubChem BioAssay data set” (2004)
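Growth conditions: 96-well plates. Treatment: test compound, 48 hours, 5 concentrations. Analysis: linear interpolation between bracketing concentrations; unreached endpoints set to highest concentration. Abbreviation: GI50, concentration required for 50% inhibition of growth.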 The source made the active and inactive calls. Cut-off read from the data, not from the text of the source: active = GI50 up to about 1.1 µM and inactive = higher.

Assays:
Assay in all cases: inhibition of tumour cell growth, NCI panel, 48 h
786-0 = tested on: 786-0
A549 = tested on: A549
CAKI-1 = tested on: CAKI-1
CCRF-CEM = tested on: CCRF-CEM
EKVX = tested on: EKVX
HCC 2998 = tested on: HCC 2998
IGROV-1 = tested on: IGROV-1
LOX IMVI = tested on: LOX IMVI
MCF7 = tested on: MCF7
MDA-MB-231 = tested on: MDA-MB-231
MDA-N = tested on: MDA-N
MOLT-4 = tested on: MOLT-4
NCI-H460 = tested on: NCI-H460
NCI/ADR-RES = tested on: NCI/ADR-RES
SK-MEL-28 = tested on: SK-MEL-28
SK-MEL-5 = tested on: SK-MEL-5
SN12C = tested on: SN12C
SNB-19 = tested on: SNB-19
UACC-62 = tested on: UACC-62
UO-31 = tested on: UO-31

Measured: GI50

COc1ccc(P2(=S)SP(=S)(c3ccc(Cl)cc3)S2)cc1 (stereo not given)
inactive: 786-0 > 100 µM | A549 > 100 µM | CAKI-1 > 100 µM | CCRF-CEM > 100 µM | EKVX > 100 µM | HCC 2998 > 100 µM | IGROV-1 > 100 µM | LOX IMVI > 100 µM | MCF7 > 100 µM | MDA-MB-231 > 100 µM | MDA-N > 100 µM | MOLT-4 > 100 µM | NCI-H460 > 100 µM | NCI/ADR-RES > 100 µM | SK-MEL-28 > 100 µM | SK-MEL-5 > 100 µM | SN12C > 100 µM | SNB-19 > 100 µM | UACC-62 > 100 µM | UO-31 > 100 µM
